Measured values published in US20180028516A1, “METHODS AND DEVICES FOR THE TREATMENT OF OCULAR DISEASES IN HUMAN SUBJECTS” (CLEARSIDE BIOMEDICAL, INC., priority 2012, published 2018).

How the values were obtained:
[1] = Ocular toxicokinetics of TA after suprachoroidal or intravitreal injection (Example 8); format: in vivo, pigmented rabbits; details: SCS, 2 mg TA, compared with intravitreal
Description: in this study, the total amount of triamcinolone acetonide (TA) delivered into live pigmented rabbit eyes when injected, into the suprachoroidal space using a hollow microneedle or into the vitreous using a standard 30 gauge needle was compared.
On Day 0, pigmented rabbits were injected with either intravitreal or bilateral suprachoroidal injections of 2 mg/100 μl TA Triesence® (TA; Alcon Labs). intravitreal injections were performed using a 30 g needle (Becton-Dickinson) and suprachoroidal injections were performed using a 33 g 750 μm microneedle. The residual amount of TA present in the syringe/needle assembly after injection was determined by RP-HPLC. Clinical observations, slit lamp biomicroscopy with McDonald-Shadduck scoring, intraocular pressure assessment (IOP), electroretinography (ERG), and systemic exposure were assessed up to 120 days post-dose. Animals were sacrificed at 30 minutes, 7 days, 30 days, 60 days, and 120 days for macroscopic observations, ocular toxicokinetics, and ocular histopathology.

[2] = Clinical observations and tolerability, SCS vs IVT TA (Example 10); format: in vivo, New Zealand White rabbit
Description: In this study, the ocular and systemic pharmacokinetics (PK) of triar cinolone acetonide (TA) in the New Zealand White rabbit following intravitreal […] injection or administration into the suprachoroidal space (SCS) using a hollow rnicroneedle were evaluated.
On Day 0, male rabbits (5 per group) received a single bilateral administration of 4 mg TA (100 μL Triesence triamcinolone formulationAlcon Labs) via SCS injection using a 33 g 750 μm microneedle or an IVT injection using a standard 30 g needle. The study design is shown below in Table 4.
Clinical observations, body weights, and intraocular pressure (IOP) were assessed up to 13 weeks post-dose. Plasma and ocular matrixes (aqueous humor (AH), lens, iris/ciliary body (ICB), vitreous humor (VH), sclera/choroid (SC), and retina) were sampled on Days 1, 14, 28, 56, and 91. Plasma (LLOQ 0.5 ng/mL) and ocular matrixes (LLOQ 2 -15 ng/mL) were analyzed using LC-MS/MS, and resulting data were assessed for noncompartmentat PK parameters.

[3] = Scotopic electroretinography after SCS TA (Example 9); format: in vivo, New Zealand White rabbit; details: for Scotopic OdB wave A, Amplitude, Mean / Scotopic OdB wave A, Time, Mean / Scotopic OdB wave B, Amplitude, Mean / Scotopic OdB wave B, Time, Mean: right & left eye
Description: In this study, the ocular tolerability and toxicokinetics of suprachoroidal administration of triamcinolone acetonide (TA) using a microneedle in a GLP study in the New Zealand White rabbit.
(§1) On Day 0, New Zealand White (NZW) rabbits were administered a single bilateral supraehoroidal injection of vehicle, 3.2 mg (80 μL) or 5.2 mg (130 μL) of TA (Triesence®, Alcoa labs) using a 33 g 750 μm microneedle. Clinical observations, slit lamp biomicroscopy with McDonald-Shadduck scoring, intraocular pressure assessment (IOP), electroretinography (ERG), and systemic exposure were assessed up to 26 weeks post-dose. Animals were sacrificed on Day 1, Week 13, and Week 26 for macroscopic observations, ocular toxicokinetics, and ocular histopathology.

[4] = Plasma and ocular matrix toxicokinetics after SCS TA, LC-MS/MS (Example 9); format: in vivo, New Zealand White rabbit
Description: as §1
Plasma and oct lar matrixes (aqueous humor (AH), lens, iris/ciliary body (ICB), vitreous humor (VH), sclera/choroid (SC), and retina) were sampled on Days 1, 14, 28, and 60. Plasma (LLOQ 0.5 ng/mL) and ocular matrixes (LLOQ 2-15 ng/mL) were analyzed using LC-MS/MS, and resulting data were assessed for noncompartmental PK parameters. Systemic exposure to TA was minimal (FIG. 20C).

**Q.** Which “ratio of TA Lens:Chroroid and Lens:Retina” value [1] does the source give for CC1(C)O[C@@H]2C[C@H]3[C@@H]4CCC5=CC(=O)C=C[C@]5(C)[C@@]4(F)[C@@H](O)C[C@]3(C)[C@]2(C(=O)CO)O1 [TA, triamcinolone acetonide] here?
**A.** much lower

**Q.** And the “adverse effects related to treatment or method of administration” value ([2]; SCS and IVT, 4 mg TA)?
**A.** no observed adverse effects

**Q.** What about the tolerability ([2]; both IVT and SCS TA, 4 mg, albino rabbit) of the same compound?
**A.** well tolerated

**Q.** What about the “Scotopic OdB wave A, Amplitude, Mean” value ([3]; 3.2 mg TA/eye SCS, Baseline) of the same compound?
**A.** −133.2 μV

**Q.** And the “Scotopic OdB wave A, Time, Mean” value ([3]; 3.2 mg TA/eye SCS, Baseline)?
**A.** 11.6 ms

**Q.** What about the “Scotopic OdB wave B, Amplitude, Mean” value ([3]; 3.2 mg TA/eye SCS, Baseline) of the same compound?
**A.** 285.8 μV

**Q.** What about the “Scotopic OdB wave B, Time, Mean” value ([3]; 3.2 mg TA/eye SCS, Baseline) of the same compound?
**A.** 42.1 ms

**Q.** And the “Scotopic OdB wave A, Amplitude, Mean” value ([3]; 3.2 mg TA/eye SCS, Day 1)?
**A.** −132 μV

**Q.** What about the “Scotopic OdB wave A, Time, Mean” value ([3]; 3.2 mg TA/eye SCS, Day 1) of the same compound?
**A.** 11.4 ms

**Q.** And the “Scotopic OdB wave B, Amplitude, Mean” value ([3]; 3.2 mg TA/eye SCS, Day 1)?
**A.** 276.5 μV

**Q.** What about the “Scotopic OdB wave B, Time, Mean” value ([3]; 3.2 mg TA/eye SCS, Day 1) of the same compound?
**A.** 47.5 ms

**Q.** What about the “Scotopic OdB wave A, Amplitude, Mean” value ([3]; 3.2 mg TA/eye SCS, Week 13) of the same compound?
**A.** −132.6 μV

**Q.** What about the “Scotopic OdB wave A, Time, Mean” value ([3]; 3.2 mg TA/eye SCS, Week 13) of the same compound?
**A.** 11.7 ms

**Q.** What about the “Scotopic OdB wave B, Amplitude, Mean” value ([3]; 3.2 mg TA/eye SCS, Week 13) of the same compound?
**A.** 299.8 μV

**Q.** What about the “Scotopic OdB wave B, Time, Mean” value ([3]; 3.2 mg TA/eye SCS, Week 13) of the same compound?
**A.** 51.1 ms

**Q.** What about the “Scotopic OdB wave A, Amplitude, Mean” value ([3]; 5.2 mg TA/eye SCS, Baseline) of the same compound?
**A.** −137.3 μV

**Q.** And the “Scotopic OdB wave A, Time, Mean” value ([3]; 5.2 mg TA/eye SCS, Baseline)?
**A.** 11.7 ms

**Q.** What about the “Scotopic OdB wave B, Amplitude, Mean” value ([3]; 5.2 mg TA/eye SCS, Baseline) of the same compound?
**A.** 286.4 μV

**Q.** What about the “Scotopic OdB wave B, Time, Mean” value ([3]; 5.2 mg TA/eye SCS, Baseline) of the same compound?
**A.** 42.3 ms

**Q.** And the “Scotopic OdB wave A, Amplitude, Mean” value ([3]; 5.2 mg TA/eye SCS, Day 1)?
**A.** −130.8 μV

**Q.** And the “Scotopic OdB wave A, Time, Mean” value ([3]; 5.2 mg TA/eye SCS, Day 1)?
**A.** 11.4 ms

**Q.** What about the “Scotopic OdB wave B, Amplitude, Mean” value ([3]; 5.2 mg TA/eye SCS, Day 1) of the same compound?
**A.** 265.7 μV

**Q.** What about the “Scotopic OdB wave B, Time, Mean” value ([3]; 5.2 mg TA/eye SCS, Day 1) of the same compound?
**A.** 43.1 ms

**Q.** What about the “Scotopic OdB wave A, Amplitude, Mean” value ([3]; 5.2 mg TA/eye SCS, Week 13) of the same compound?
**A.** −117.1 μV

**Q.** And the “Scotopic OdB wave A, Time, Mean” value ([3]; 5.2 mg TA/eye SCS, Week 13)?
**A.** 12.6 ms

**Q.** And the “Scotopic OdB wave B, Amplitude, Mean” value ([3]; 5.2 mg TA/eye SCS, Week 13)?
**A.** 264.6 μV

**Q.** What about the “Scotopic OdB wave B, Time, Mean” value ([3]; 5.2 mg TA/eye SCS, Week 13) of the same compound?
**A.** 45.7 ms

**Q.** And the “effect on a-wave or b-wave implicit time or amplitude (scotopic ERG)” value ([3]; 3.2 or 5.2 mg TA SCS)?
**A.** no administration or TA-related effect

**Q.** What about the “systemic exposure to TA” value ([4]; 3.2 or 5.2 mg TA SCS, plasma) of the same compound?
**A.** minimal

**Q.** What about the “difference between TA levels in sclera/choroid and in the vitreous” value ([4]; SCS TA) of the same compound?
**A.** 6 orders of magnitude

**Q.** And the “amount of TA retained in the retina, high dose vs low dose” value ([4]; by day 15, SCS)?
**A.** did not significantly differ

**Q.** What about the “amount of TA retained in the sclera/choroid, high dose vs low dose” value ([4]; by day 30, SCS) of the same compound?
**A.** did not significantly differ

**Q.** And the “order of TA in ocular matrixes (decreasing)” value ([4]; following SCS TA)?
**A.** SC>retina>ICB>VH>lens>AU

**Q.** And the “sclera/choroid tissue concentration of TA” value ([4]; for longer than 28 days after a single SCS dose)?
**A.** greater than 100 μg/g tissue

**Q.** And the “TA peak concentration in plasma” value ([4]; peaked on Day 1, both the high and low TA dose groups (5.2 and 3.2 mg SCS))?
**A.** around 12 nglint
